From patent publication US11944605B2, “Rapamycin analogs and uses thereof” (Janssen Pharmaceutica NV, priority 2018, dated 2024)

Columns and labels:
mTORC1 over mTORC2 = experiment: mTORC1 selectivity over mTORC2 at 24 hrs (Western blot based pS6K1 and pAKT assay); type: cell-based; details: 24 hrs
Protocol: Western Blot Based pS6K1 and pAKT Assay at 24 and 48 Hour Timepoints
1. Seed six well plate with 500,000 PC3 cells per well and incubate for 20˜24 hour.
2. Add compounds into the cell plate. Incubate for 24 to 48 hours.
4. Plate is placed on ice and the media is removed via aspiration. The wells are washed with 1 mL of 1× PBS and then fully aspirated.
5. 110 μL of 1% Triton Lysis Buffer is added and each well is scraped vigorously.
6. Cell homogenates are transferred to 1.5 mL eppendorf tubes on ice and spun down at 4° C. for 10 minutes at 10,000 rpm.
9. The membranes were washed 3× with TBS-T with a 5 minute incubation between each wash then incubated with secondary antibody (LiCor IRDye 800 Donkey Anti Rabbit) for at least 30 minutes.
10. The membranes were washed 3× with TBS-T with a 5 minute incubation between each wash.
11. The gels were then incubated for 5 minutes with PBS at room temperature then imaged using a Li-Cor.
“N/A” stands for “not assayed.”

[1] = tested on: pS6K1 (p-p70 S6 Kinase (Thr389)) in MCF-7 cells; experiment: AlphaLISA Ultra pS6K1 Assay; type: cell-based; details: Homo sapiens, 1.5 h; MCF7 cells, 90 min
Protocol: AlphaLISA Ultra pS6K1 Assay
1. Seed MCF-7 cells in Corning 3701 plate and incubate for 20˜24 hour. 12,000˜16,000 cells will be seeded in 36 μL medium per well.
2. Change the culture medium with fresh medium and incubate for another 2 hours.
3. Add 12 μL (4×) compounds into the cell plate by HAMILTON. Final DMSO concentration is 0.5%. Incubate for 90 minutes.
4. Aspirate […] by HAMILTON, 10 μL rest per well.
5. Add 10 μL 2× lysis buffer using HAMILTON; total volume in wells is 20 μL. Allow cells to shake for 30 min. Cover plate by plastic foil and store plate at −80° C. up to analysis.
6. Thaw cell lysate at RT and transfer 10 μL lysate to assay plate (Optiplate-384).
7. Add 5 μL acceptor beads into assay plate and incubation for 2 hours
8. Add 5 μL donor beads and incubation for 2 hours
9. Count the plate by EnSpire Multimode Plate Reader

| IC50 [1] [nM] | SMILES | mTORC1 selective @ 24 hrs (mTORC1 over mTORC2) |
| --- | --- | --- |
| 0.1 to 1 | CO[C@@H]1C[C@H](C[C@@H](C)[C@@H]2CC(=O)[C@H](C)/C=C(\C)[C@@H](O)[C@@H](OC)C(=O)[C@H](C)C[C@H](C)/C=C/C=C/C=C(\C)[C@H](OCC(CO)CO)C[C@@H]3CC[C@@H](C)[C@@](O)(O3)C(=O)C(=O)N3CCCC[C@H]3C(=O)O2)CC[C@H]1O [I-4] | YES |
| ≥ 100 | CNC(=O)CCCO[C@@H]1C[C@@H]2CC[C@@H](C)[C@@](O)(O2)C(=O)C(=O)N2CCCC[C@H]2C(=O)O[C@H]([C@H](C)C[C@@H]2CC[C@@H](OCCO)[C@H](OC)C2)CC(=O)[C@H](C)/C=C(\C)[C@@H](O)[C@@H](OC)C(=O)[C@H](C)C[C@H](C)/C=C/C=C/C=C/1C [I-59, 4-[[(22E,24E,26E,27E,34R,35S,36R,37R,39S,41S,43R,44S,45R,46R,56R)-45, 56-dihydroxy-44-[(1R)-2-[(1S,3R,4R)-4-(2-hydroxyethoxy)-3-methoxy-cyclohexyl]-1-methyl-ethyl]-46-methoxy-34, 35,36,37,47,48-hexamethyl-49,50,51,52,53-pentaoxo-68,69-dioxa-58-azatricyclohexatriaconta-22, 24,26(47),27(48)-tetraen-43-yl]oxy]-N-methyl-butanamide] | YES |
| 1 to 10 | CNC(=O)CCCO[C@H]1C[C@@H]2CC[C@@H](C)[C@@](O)(O2)C(=O)C(=O)N2CCCC[C@H]2C(=O)O[C@H]([C@H](C)C[C@@H]2CC[C@@H](OCCO)[C@H](OC)C2)CC(=O)[C@H](C)/C=C(\C)[C@@H](O)[C@@H](OC)C(=O)[C@H](C)C[C@H](C)/C=C/C=C/C=C/1C [I-60, 4-[[(22E, 24E,26E,27E,34R,35S,36R,37R,39S,41S,43S,44S,45R,46R,56R)-45, 56-dihydroxy-44-[(1R)-2-[(1S,3R,4R)-4-(2-hydroxyethoxy)-3-methoxy-cyclohexyl]-1-methyl-ethyl]-46-methoxy-34, 35,36,37,47,48-hexamethyl-49,50,51,52,53-pentaoxo-68,69-dioxa-58-azatricyclohexatriaconta-22, 24,26(47),27(48)-tetraen-43-yl]oxy]-N-methyl-butanamide] | YES |
| 1 to 10 | CO[C@@H]1C[C@H](C[C@@H](C)[C@@H]2CC(=O)[C@H](C)/C=C(\C)[C@@H](O)[C@@H](OC)C(=O)[C@H](C)C[C@H](C)/C=C/C=C/C=C(\C)[C@H](OCCCC(=O)N(C)C)C[C@@H]3CC[C@@H](C)[C@@](O)(O3)C(=O)C(=O)N3CCCC[C@H]3C(=O)O2)CC[C@H]1OCCO [I-61, 4-[[(23E,25E,27E,28E,35R,36S,37R,38R,40S,42S,44R,45S,46R,47R,57R)-46, 57-dihydroxy-45-[(1R)-2-[(1S,3R,4R)-4-(2-hydroxyethoxy)-3-methoxy-cyclohexyl]-1-methyl-ethyl]-47-methoxy-35, 36,37,38,48,49-hexamethyl-50,51,52,53,54-pentaoxo-69,70-dioxa-58-azatricyclohexatriaconta-23, 25,27(48),28(49)-tetraen-44-yl]oxy]-N,N-dimethyl-butanamide] | YES |
| 1 to 10 | CNC(=O)CCCOC1C[C@@H]2CC[C@@H](C)[C@@](O)(O2)C(=O)C(=O)N2CCCC[C@H]2C(=O)OC([C@H](C)CC2CC[C@@H](OCCO)[C@H](OC)C2)CC(=O)[C@H](C)/C=C(\C)[C@@H](O)[C@@H](OC)C(=O)[C@H](C)C[C@H](C)/C=C/C=C/C=C/1C (stereo partly drawn) [I-68, 4-[[(22E,24E,26E,27E,34R,35S,36R,37R,39S,41S,44S,45R,46R, 56R)-45,56-dihydroxy-44-[(1R)-2-[(1S,3R,4R)-4-(2-hydroxyethoxy)-3-methoxy-cyclohexyl]-1-methyl-ethyl]-46-methoxy-34, 35,36,37,47,48-hexamethyl-49,50,51,52,53-pentaoxo-68,69-dioxa-58-azatricyclohexatriaconta-22, 24,26(47),27(48)-tetraen-43-yl]oxy]-N-methyl-butanamide] | YES |
| 0.1 to 1 | CO[C@@H]1CC(C[C@@H](C)C2CC(=O)[C@H](C)/C=C(\C)[C@@H](O)[C@@H](OC)C(=O)[C@H](C)C[C@H](C)/C=C/C=C/C=C(\C)C(OCCCC(=O)N(C)C)C[C@@H]3CC[C@@H](C)[C@@](O)(O3)C(=O)C(=O)N3CCCC[C@H]3C(=O)O2)CC[C@H]1OCCO (stereo partly drawn) [I-69, 4-[[(23E, 25E,27E,28E,35R,36S,37R,38R,40S,42S,45S,46R,47R,57R)-46,57-dihydroxy-45-[(1R)-2-[(1S, 3R,4R)-4-(2-hydroxyethoxy)-3-methoxy-cyclohexyl]-1-methyl-ethyl]-47-methoxy-35, 36,37,38,48,49-hexamethyl-50,51,52,53,54-pentaoxo-69,70-dioxa-58-azatricyclohexatriaconta-23, 25,27(48),28(49)-tetraen-44-yl]oxy]-N,N-dimethyl-butanamide] | YES |
| 1 to 10 | CO[C@@H]1CC(C[C@@H](C)C2CC(=O)[C@H](C)/C=C(\C)[C@@H](O)[C@@H](OC)C(=O)[C@H](C)C[C@H](C)/C=C/C=C/C=C(\C)[C@H](OCCOCC(F)(F)F)C[C@@H]3CC[C@@H](C)[C@@](O)(O3)C(=O)C(=O)N3CCCC[C@H]3C(=O)O2)CC[C@H]1OCCO (stereo partly drawn) [I-70, (21E,23E,25E,26E,33R,34S,35R,36R,38S,40S,42S,43R,44R,45R,54R)-44, 54-dihydroxy-43-[(1R)-2-[(1S,3R,4R)-4-(2-hydroxyethoxy)-3-methoxy-cyclohexyl]-1-methyl-ethyl]-45-methoxy-33, 34,35,36,46,47-hexamethyl-42-[2-(2,2,2-trifluoroethoxy)ethoxy]-65, 66-dioxa-56-azatricyclohexatriaconta-21,23,25(46),26(47)-tetraene-48,49,50,51,52-pentone] | YES |
| < 0.1 | CO[C@@H]1CC(C[C@@H](C)C2CC(=O)[C@H](C)/C=C(\C)[C@@H](O)[C@@H](OC)C(=O)[C@H](C)C[C@H](C)/C=C/C=C/C=C(\C)C(OCCOCC(F)(F)F)C[C@@H]3CC[C@@H](C)[C@@](O)(O3)C(=O)C(=O)N3CCCC[C@H]3C(=O)O2)CC[C@H]1OCCO (stereo partly drawn) [I-77, (21E,23E,25E,26E,33R,34S,35R,36R,38S,40S,43S,44R,45R,54R)-44, 54-dihydroxy-43-[(1R)-2-[(1S,3R,4R)-4-(2-hydroxyethoxy)-3-methoxy-cyclohexyl]-1-methyl-ethyl]-45-methoxy-33, 34,35,36,46,47-hexamethyl-42-[2-(2,2,2-trifluoroethoxy)ethoxy]-65,66-dioxa-56-azatricyclohexatriaconta-21, 23,25(46),26(47)-tetraene-48,49,50,51,52-pentone] | YES |
| 0.1 to 1 | CO[C@@H]1C[C@H](C[C@@H](C)[C@@H]2CC(=O)[C@H](C)/C=C(\C)[C@@H](O)[C@@H](OC)C(=O)[C@H](C)C[C@H](C)/C=C/C=C/C=C(\C)[C@H](OCCOCCOCC(F)(F)F)C[C@@H]3CC[C@@H](C)[C@@](O)(O3)C(=O)C(=O)N3CCCC[C@H]3C(=O)O2)CC[C@H]1OCCO [I-84] | YES |
|  | CO[C@@H]1C[C@H](C[C@@H](C)[C@@H]2CC(=O)[C@H](C)/C=C(\C)[C@@H](O)[C@@H](OC)C(=O)[C@H](C)C[C@H](C)/C=C/C=C/C=C(\C)[C@@H](OCCS(=O)(=O)CCS(=O)(=O)CCO)C[C@@H]3CC[C@@H](C)[C@@](O)(O3)C(=O)C(=O)N3CCCC[C@H]3C(=O)O2)CC[C@H]1O [I-95, (21E,23E,25E,26E,34R,35S,36R,37R,39S,41S,43S,44S,45R,46R,55R)-45, 55-dihydroxy-43-[2-[2-(2-hydroxyethylsulfonyl)ethylsulfonyl]ethoxy]-44-[(1R)-2-[(1S,3R, 4R)-4-hydroxy-3-methoxy-cyclohexyl]-1-methyl-ethyl]-46-methoxy-34,35,36,37,47,48-hexamethyl-70, 71-dioxa-56-azatricyclohexatriaconta-21,23,25(47),26(48)-tetraene-49, 50,51,52,53-pentone] | YES |
| 0.1 to 1 | COCCOCCO[C@@H]1C[C@@H]2CC[C@@H](C)[C@@](O)(O2)C(=O)C(=O)N2CCCC[C@H]2C(=O)O[C@H]([C@H](C)C[C@@H]2CC[C@@H](OCCO)[C@H](OC)C2)CC(=O)[C@H](C)/C=C(\C)[C@@H](O)[C@@H](OC)C(=O)[C@H](C)C[C@H](C)/C=C/C=C/C=C/1C [I-104, (22E,24E,26E,27E,35R,36S,37R,38R,40S,42S,44R,45S,46R,47R,56R)-46, 56-dihydroxy-45-[(1R)-2-[(1S,3R, 4R)-4-(2-hydroxyethoxy)-3-methoxy-cyclohexyl]-1-methyl-ethyl]-47-methoxy-44-[2-(2-methoxyethoxy)ethoxy]-35,36,37,38,48,49-hexamethyl-66, 67-dioxa-57-azatricyclohexatriaconta-22,24,26(48),27(49)-tetraene-50,51,52,53,54-pentone] | YES |
